Laboratory results from patent US8173674B2, “Sulfonyl-phenyl-2H-[1,2,4]oxadiazol-5-one derivatives, processes for their preparation and their use as pharmaceuticals” (Sanofi-Aventis, priority 2006, dated 2012).
Like-named read-outs stand apart in the source and are kept apart here.

Columns and labels:
human PPARalpha = target: T1, human PPARalpha (Homo sapiens, UniProt Q07869); assay: cellular PPARalpha assay (luciferase reporter, stably transfected HEK cell line); type: cell-based
T1 construct: amino acids S167-Y468; expressed in transfected cells
T1 sequence (Q07869 167-468): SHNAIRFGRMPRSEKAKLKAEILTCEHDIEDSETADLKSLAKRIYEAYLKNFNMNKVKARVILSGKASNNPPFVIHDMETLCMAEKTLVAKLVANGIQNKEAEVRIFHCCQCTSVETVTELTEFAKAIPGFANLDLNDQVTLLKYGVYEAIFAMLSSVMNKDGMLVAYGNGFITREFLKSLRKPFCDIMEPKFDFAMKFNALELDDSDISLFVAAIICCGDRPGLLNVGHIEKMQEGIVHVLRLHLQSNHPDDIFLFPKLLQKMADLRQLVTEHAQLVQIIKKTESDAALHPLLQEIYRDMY
Description: (§1) The potency of substances which bind to human PPARalpha and activate it in an agonistic manner is analyzed using a stably transfected HEK cell line (HEK=human embryo kidney) which is referred to here as PPARalpha reporter cell line. It contains two genetic elements, a luciferase reporter element (pdeltaM-GAL4-Luc-Zeo) and a PPARalpha fusion protein (GR-GAL4-humanPPARalpha-LBD) which mediates expression of the luciferase reporter element depending on a PPARalpha ligand. The stably and constitutively expressed fusion protein GR-GAL4-humanPPARalpha-LBD binds in the cell nucleus of the PPARalpha reporter cell line via the GAL4 protein portion to the GAL4 DNA binding motifs 5′-upstream of the luciferase reporter element which is stably integrated in the genome of the cell line. There is only weak expression of the luciferase reporter gene in the absence of a PPARalpha ligand if fatty acid-depleted fetal calf serum (cs-FCS) is used in the assay. PPARalpha ligands bind and activate the PPARalpha fusion protein and thereby stimulate the expression of the luciferase reporter gene. The luciferase which is formed can be detected by means of chemiluminescence via an appropriate substrate.
The PPARalpha reporter cell line was prepared in two stages. Firstly, the luciferase reporter element was constructed and stably transfected into HEK cells. For this purpose, five binding sites of the yeast transcription factor GAL4 (Accession # AF264724) were cloned in 5′-upstream of a 68 bp-long minimal MMTV promoter (Accession # V01175). The minimal MMTV promoter section contains a CCAAT box and a TATA element in order to enable efficient transcription by RNA polymerase II. The cloning and sequencing of the GAL4-MMTV construct took place in analogy to the description of Sambrook J. et. al. (Molecular cloning, Cold Spring Harbor Laboratory Press, 1989). Then the complete Photinus pyralis gene (Accession # M15077) was cloned in 3′-downstream of the GAL4-MMTV element. After sequencing, the luciferase reporter element consisting of five GAL4 binding sites, MMTV promoter and luciferase gene was recloned into a plasmid which confers zeocin resistance in order to obtain the plasmid pdeltaM-GAL4-Luc-Zeo. This vector was transfected into HEK cells in accordance with the statements in Ausubel, F. M. et al. (Current protocols in molecular biology, Vol. 1-3, John Wiley & Sons, Inc., 1995).
In a second step, the PPARalpha fusion protein (GR-GAL4-humanPPARalpha-LBD was introduced into the stable cell clone described. For this purpose, initially the cDNA coding for the N-terminal 76 amino acids of the glucocorticoid receptor (Accession # P04150) was linked to the cDNA section coding for amino acids 1-147 of the yeast transcription factor GAL4 (Accession # P04386). The cDNA of the ligand-binding domain of the human PPARalpha receptor (amino acids S167-Y468; Accession # S74349) was cloned in at the 3′-end of this GR-GAL4 construct. The fusion construct prepared in this way (GR-GAL4-humanPPARalpha-LBD) was recloned into the plasmid pcDNA3 (Invitrogen) in order to enable constitutive expression therein by the cytomegalovirus promoter. This plasmid was linearized with a restriction endonuclease and stably transfected into the previously described cell clone containing the luciferase reporter element. The finished PPARalpha reporter cell line which contains a luciferase reporter element and constitutively expresses the PPARalpha fusion protein (GR-GAL4-human PPARalpha-LBD) was isolated by selection with zeocin (0.5 mg/ml) and G418 (0.5 mg/ml).
The activity of PPARalpha agonists is determined in a 3-day assay which is described below: […]

human PPARdelta = target: T2, human PPARdelta (Homo sapiens, UniProt Q03181); assay: cellular PPARdelta assay (luciferase reporter, stably transfected HEK cell line); type: cell-based; conditions: GR-GAL4-humanPPARdelta-LBD
T2 construct: amino acids S139-Y441; expressed in transfected cells
T2 sequence (Q03181 139-441): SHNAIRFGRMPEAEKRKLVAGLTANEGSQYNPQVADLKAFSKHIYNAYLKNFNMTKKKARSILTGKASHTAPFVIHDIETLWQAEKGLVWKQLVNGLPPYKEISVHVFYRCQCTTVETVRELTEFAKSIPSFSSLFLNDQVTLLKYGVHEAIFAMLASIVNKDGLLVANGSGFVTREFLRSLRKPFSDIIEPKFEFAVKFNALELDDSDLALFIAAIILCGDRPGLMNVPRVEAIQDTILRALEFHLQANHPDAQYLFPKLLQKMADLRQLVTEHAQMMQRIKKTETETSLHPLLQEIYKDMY
Description: as §1, with “PPARdelta” for “PPARalpha”, “In analogy to the assay described for PPARalpha, the PPARdelta reporter cell line also” for “It”, “(GR-GAL4-humanPPARdelta-LBD)” for “(GR-GAL4-humanPPARalpha-LBD)”, “GR-GAL4-humanPPARdelta-LBD” for “GR-GAL4-humanPPARalpha-LBD”, “little” for “weak”, “stimulate” for “stimulate the”
The production of the stable PPARdelta reporter cell line is based on a stable HEK-cell clone which was stably transfected with a luciferase reporter element. This step was already described above in the section “construction of the PPARalpha reporter cell line”. […]
The activity of PPARdelta agonists is determined in a 3-day assay in exact analogy to the procedure already described for the PPARalpha reporter cell line except that the PPARdelta reporter cell line and a specific PPARdelta agonist was used as a standard to control test efficacy.

PPARdelta [1] = conditions: diabetic animal model; cited from earlier work
PPARdelta [2] = target: T3, PPARdelta (Macaca mulatta, UniProt I0FFS1); conditions: obese, insulin resistant rhesus monkeys; cited from earlier work
T3 sequence (I0FFS1 1-441): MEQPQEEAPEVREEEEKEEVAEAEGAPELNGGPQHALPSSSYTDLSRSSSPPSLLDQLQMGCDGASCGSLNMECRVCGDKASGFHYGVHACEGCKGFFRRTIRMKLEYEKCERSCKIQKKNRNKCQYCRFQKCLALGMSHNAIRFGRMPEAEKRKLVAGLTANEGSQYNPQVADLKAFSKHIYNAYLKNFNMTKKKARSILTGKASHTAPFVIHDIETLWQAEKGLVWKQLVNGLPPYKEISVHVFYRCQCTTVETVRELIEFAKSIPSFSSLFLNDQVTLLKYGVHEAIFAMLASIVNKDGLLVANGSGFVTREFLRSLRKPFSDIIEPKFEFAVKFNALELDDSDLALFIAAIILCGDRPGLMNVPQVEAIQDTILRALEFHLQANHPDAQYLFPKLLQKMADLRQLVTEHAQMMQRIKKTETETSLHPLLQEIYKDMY

PPARdelta/PPARalpha [3] = conditions: two weeks clinical trials, healthy volunteers; cited from earlier work
PPARdelta/PPARalpha [4] = conditions: rhesus and cynomolgus monkeys; cited from earlier work
[5] = read-out: PPARalpha EC50 values (range given)
[6] = GR-GAL4-humanPPARalpha-LBD, read-out: PPARalpha EC50

Row | Compound | EC50 (human PPARalpha; [5]) | EC50 (human PPARdelta) | EC50 (human PPARalpha; [6]) | other results
1 | O=c1[nH]c(-c2ccc(S(=O)(=O)N3CCc4cc(-c5ccc(C(F)(F)F)cc5)ccc43)cc2)no1 [Example 1, 3-{4-[5-(4-Trifluoromethyl-phenyl)-2,3-dihydro-indole-1-sulfonyl]-phenyl}-4H-[1,2,4]oxadiazol-5-one] | 1000 to 5000 nM | – | – | –
2 | CC1(C)CN(S(=O)(=O)c2ccc(-c3nc(=O)o[nH]3)cc2)c2ccc(-c3ccc(C(F)(F)F)cc3)cc21 [Example 2, 3-{4-[3,3-Dimethyl-5-(4-trifluoromethyl-phenyl)-2,3-dihydro-indole-1-sulfonyl]-phenyl}-2H-[1,2,4]oxadiazol-5-one] | 1000 to 5000 nM | 15 nM | 3520 nM | –
3 | O=c1[nH]c(-c2ccc(S(=O)(=O)N3CCc4cc(-c5ccc(C(F)(F)F)cc5)ccc43)cc2Cl)no1 [Example 3, 3-{2-Chloro-4-[5-(4-trifluoromethyl-phenyl)-2,3-dihydro-indole-1-sulfonyl]-phenyl}-4H-[1,2,4]oxadiazol-5-one] | 1000 to 5000 nM | 3 nM | 1110 nM | –
4 | CC1(C)CN(S(=O)(=O)c2ccc(-c3nc(=O)o[nH]3)c(Cl)c2)c2ccc(-c3ccc(C(F)(F)F)cc3)cc21 [Example 4, 3-{2-Chloro-4-[3,3-dimethyl-5-(4-trifluoromethyl-phenyl)-2,3-dihydro-indole-1-sulfonyl]-phenyl}-2H-[1,2,4]oxadiazol-5-one] | 1000 to 5000 nM | – | – | –
5 | O=c1nc(-c2ccc(S(=O)(=O)N3CCc4ccc(-c5ccc(C(F)(F)F)cc5)cc4C3)cc2Cl)[nH]o1 [Example 5, 3-{2-Chloro-4-[7-(4-trifluoromethyl-phenyl)-3,4-dihydro-1H-isoquinoline-2-sulfonyl]-phenyl}-2H-[1,2,4]oxadiazol-5-one] | 1000 to 5000 nM | 35 nM | 1640 nM | –
6 | CCCc1c(OCCCOc2ccc(OCC(=O)O)cc2)ccc(C(C)=O)c1O [Example L-165041] | – | – | – | plasma cholesterol (PPARdelta [1]): raises
7 | Cc1cc(SCc2sc(-c3ccc(C(F)(F)F)cc3)nc2C)ccc1OCC(=O)O [GW501516] | – | – | – | HDL-cholesterol (PPARdelta [2]): raises; insulin levels (PPARdelta [2]): decreases; plasma LDL-cholesterol (PPARdelta [2]): decreases; triglycerides (PPARdelta [2]): decreases
8 | CCCc1c(OCCCSc2nnc(SCC(=O)O)s2)ccc(C(C)=O)c1O [YM-16638] | – | – | – | plasma lipids (PPARdelta/PPARalpha [3]): acts in a similar manner; plasma lipids (PPARdelta/PPARalpha [4]): significantly lowers
